# What was measured:
# Assay type in all cases: physicochemical
# [1] = Differential scanning calorimetry, relative stability of polymorphs A and E by the rules of Burger; conditions: from DSC melting point and enthalpy of fusion
# [2] = Stability of polymorph E in competition with the THF solvated form (slurry in THF/ethanol)
# Experimental: (§1) To verify the stability of polymorph E, trials were performed at the laboratory scale, by putting polymorph E in competition with compound (I) (polymorph A) and with the THF solvated form in mixtures of solvent.
# Polymorph E was also put in competition with the solvated form of compound (I) obtained in from THF. A mixture of the THF solvated form and polymorph E (50/50, w/w) was left under stirring for 24 hours in 40V of THF/ethanol (50/50, v/v) at room temperature.
# [3] = Stability of polymorph E in competition with polymorph A (slurry in solvent, X-ray powder diffraction)
# Experimental: as §1
# Polymorph E was first put in competition with compound (I) (polymorph A) (mixture 50/50, w/w) in ethanol/THF 80/20% v/v. This stability test was performed at ambient temperature under magnetic stirring for 24 hours, then the solid was filtered, dried, then analyzed by X-ray powder diffraction. […] Similar experiments were performed in ethanol 100% at various concentrations.
# Polymorph E stability also was tested as a suspension in 100% ethanol at room temperature, seeded with compound (I) (polymorph A).
# [4] = under the competition conditions described
structure (smiles),measurement,setting,value
"COc1ccc(Cl)c(Nc2nc3ccccc3nc2NS(=O)(=O)c2cccc(NC(=O)C(C)(C)N)c2)c1 [Polymorph E, N-(3-{[(2Z)-3-[(2-chloro-5-methoxyphenyl)amino]quinoxalin-2(1H)-ylidene]sulfamoyl}phenyl)-2-methylalaninamide]",thermodynamic stability relationship between polymorphs A and E (monotropic),[1],the more stable one
same,solid form present at the end of competition,"[2]; mixture 50/50 w/w with THF solvated form, 40V THF/ethanol 50/50 v/v, room temperature, stirring 24 hours",only polymorph E was present
same,relative stability versus THF-solvated form,[2]; [4],more stable than the THF-solvated form
same,solid form found after competition,"[3]; competition with polymorph A, ethanol 100%, various concentrations",Polymorph E was always obtained
same,solid form found by X-ray powder diffraction after competition,"[3]; mixture 50/50 w/w with polymorph A, ethanol/THF 80/20% v/v, ambient temperature, magnetic stirring, 24 hours",Polymorph E was obtained
same,solid form found by X-ray powder diffraction after seeding,"[3]; suspension in 100% ethanol, room temperature, seeded with polymorph A, 24 hours",only polymorph E
same,relative stability versus polymorph A,[3]; [4],more stable than the polymorph A of compound (I)

# Source: patent US9388143B2, “Polymorph of N-(3-{[(2Z)-3-[(2-chloro-5-methoxyphenyl)amino]quinoxalin-2(1H)-ylidene]sulfamoyl}phenyl)-2-methylalaninamide” (Sanofi, priority 2012, dated 2016)
